In PMC12903857:

Legend:
14-3-3σ/C-RAF259 [1] = molecular target: T1, 14-3-3σ/C-RAF259 (Homo sapiens, UniProt P31947); test: Fluorescence anisotropy (FA) compound titration; format: binding; conditions: 10 nM C-RAF259-FAM 10-mer, 5 μΜ 14-3-3σ, overnight; read-out: Compound titrations EC50 value C-RAF259
Protocol: (§1) In analogy to our previous work, two orthogonal assays were used for screening (Figure S2). […] Dose responses of compounds were performed in the absence and presence of the C-RAF259 phospho-peptide to distinguish between neutral binders and cooperative molecular glues. The experiment was performed as a time course, with measurements every 8 h, after an 1 h incubation. Additionally, the compounds were tested in a fluorescence anisotropy (FA) assay in the presence of the 5-carboxyfluorescein-(FAM)-labeled C-RAF259 peptide. […] The full dose–response data for all compounds are available in the SI (Tables S2–S5, Figures S5–S8, Figures S15–S18, Figures S25–S32, Figures S37–S39). The dose–response data from both assays were also visually compared in the form of bar graphs. […] For FA experiments, the EC50 values from the overnight measurement were calculated and plotted as bar graphs showing the […] log EC50 value (pEC50). Compounds acting as MGs were expected to show increases in both types of bar graphs.
(§2) transferred in the assay plates.
(§3) The reacton mixtures were incubated
(§4) dispensed in the assay plates.
(§5) incubaton at room temperature .

14-3-3σ/C-RAF259 [2] = molecular target: T1, 14-3-3σ/C-RAF259; test: FA protein titration, C-RAF259 peptide; conditions: appKd DMSO / appKd compound
14-3-3σ = molecular target: T2, 14-3-3σ (Homo sapiens, UniProt P31947); test: Intact mass spectrometry assay, apo (no peptide); format: binding; set-up: full-length for mass spectrometry and fluorescence anisotropy assays; made in house; host or cells: E. coli Rosetta 2(DE3)pLysS, pPROEX HTb vector; conditions: 1 μM compound, 100 nM 14-3-3σ
T2 sequence (P31947 1-248): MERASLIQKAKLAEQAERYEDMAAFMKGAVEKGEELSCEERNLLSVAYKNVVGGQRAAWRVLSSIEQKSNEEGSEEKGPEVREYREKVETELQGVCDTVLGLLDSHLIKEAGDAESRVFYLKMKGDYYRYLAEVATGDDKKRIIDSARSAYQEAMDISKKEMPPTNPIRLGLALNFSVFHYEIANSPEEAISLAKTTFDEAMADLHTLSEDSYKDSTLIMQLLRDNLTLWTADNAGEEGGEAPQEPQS
Protocol: as §1, §2, §3, §4, §5

14-3-3σ/C-RAF259 [3] = molecular target: T1, 14-3-3σ/C-RAF259; test: Intact mass spectrometry assay with C-RAF259 phospho-peptide; format: binding; set-up: full-length for mass spectrometry and fluorescence anisotropy assays; made in house; host or cells: E. coli Rosetta 2(DE3)pLysS (14-3-3σ); peptides from Elim Biopharmaceuticals; conditions: 1 μM compound, 100 nM 14-3-3σ, 18 µM peptide
Protocol: as §1, §2, §3, §4, §5

SMILES | EC50 (14-3-3σ/C-RAF259 [1]) [µM] | Fold stabilization (100 µM compound), C-RAF259 (10mer) (14-3-3σ/C-RAF259 [2]) [fold] | % bound, APO, 1h (14-3-3σ) [%] | % bound, APO, 8h (14-3-3σ) [%] | % bound, APO, 16h (14-3-3σ) [%] | % bound, APO, 24h (14-3-3σ) [%] | % bound, C-RAF259 (11mer), 1h (14-3-3σ/C-RAF259 [3]) [%] | % bound, C-RAF259 (11mer), 8h (14-3-3σ/C-RAF259 [3]) [%] | % bound, C-RAF259 (11mer), 16h (14-3-3σ/C-RAF259 [3]) [%] | % bound, C-RAF259 (11mer), 24h (14-3-3σ/C-RAF259 [3]) [%]
O=C(CCl)N1CC2CC1CN2S(=O)(=O)c1ccc(Br)c(F)c1 (centres unmarked) [Compound 58] | 12 ± 1 | 6 | 4.7 | 17.3 | 28 | 51.8 | 16.5 | 45.2 | 71.2 | 80.5
O=C(CCl)NCC1CCN(S(=O)(=O)c2ccc(F)c(Cl)c2)CC1 [Compound 30] | 12 ± 2 | 3 | 1 | 2.5 | 6.5 | 22.5 | 11 | 24.8 | 41.8 | 60.3
O=Cc1ccc(S(=O)(=O)N2CCC(CNC(=O)CCl)CC2)cc1 [Compound 21] | 5 ± 1 | 9 | – | 2.9 | 4.4 | 7.4 | 2.9 | 6.5 | 10.7 | 32.2
O=C(CCl)NCC1CCN(S(=O)(=O)c2ccc(Cl)cc2)CC1 [Compound 12] | 3 ± 1 | 22 | 1 | 1.5 | 2.9 | 4.3 | 12.1 | 32.8 | 47.8 | 64.4
O=C(CCl)NCC1CCN(S(=O)(=O)c2ccc3c(c2)OCO3)CC1 [Compound 26] | 26 ± 3 | – | 0 | 0 | 1.9 | 5.2 | 4.3 | 11.3 | 22.6 | 34.1
O=C(CCl)N1CC2(CC(NS(=O)(=O)c3ccc(Br)c(F)c3)CO2)C1 (centres unmarked) [Compound 67] | 14 ± 1 | – | 2.9 | 9.1 | 15.9 | 23 | 15 | 30.4 | 55.6 | 81.5
N#Cc1ccc(S(=O)(=O)N2CCC(CNC(=O)CCl)CC2)cc1 [Compound 20] | > 150 | – | 0 | 0.5 | 1.5 | 2.9 | 4.7 | 12.1 | 23.9 | 42.3
O=C(CCl)NCC1CCN(S(=O)(=O)c2ccc(Cl)nc2)CC1 [Compound 14] | 82 ± 6 | – | 1.9 | 2.5 | 3 | 15 | 4.7 | 7.4 | 9.9 | 20.9
O=C(CCl)NCC1CCN(S(=O)(=O)c2ccccc2F)CC1 [Compound 15] | 87 ± 9 | – | 0.5 | 1.9 | 2.4 | 2.4 | 3.3 | 8.2 | 13.7 | 23.3
O=C(CCl)NC1CC2(CCN(S(=O)(=O)c3ccc(Br)c(F)c3)CC2)C1 [Compound 55] | > 1000 | – | 0 | 0.9 | 1.9 | 7.4 | 6.1 | 9.9 | 20.6 | 34.6
O=C(CCl)NCc1ccc(NS(=O)(=O)c2ccc(Br)c(F)c2)cc1 [Compound 73] | > 1000 | – | 0 | 1.5 | 1.5 | 3.8 | 1.9 | 2.9 | 12.1 | 31
O=C(CCl)NCC1CCN(S(=O)(=O)c2ccc(F)cc2F)CC1 [Compound 27] | > 150 | – | 1 | – | 3.8 | 5.2 | 6.9 | 14.1 | 27.5 | 50.3
O=C(CCl)NCC1CCN(S(=O)(=O)C2CCC3(CC2)CC3(F)F)CC1 (centres unmarked) [Compound 34] | > 1000 | – | 0 | 0.5 | 0.9 | 0.9 | 0.5 | 0.9 | 0.9 | 3.8
COc1ccc(S(=O)(=O)N2CCC(CNC(=O)CCl)CC2)cc1 [Compound 25] | 57 ± 9 | – | 0.5 | 1.9 | 7.4 | 13.8 | 10.6 | 15 | 27.1 | 44.4
O=C(CCl)NCC1CCN(S(=O)(=O)Cc2ccc(Cl)cc2)CC1 [Compound 9] | > 1000 | – | 0 | 0 | 1.5 | 1.9 | 0 | 0.5 | 2.9 | 3.2
